Experimental data reported in patent US10377746B2, “Indolin-2-one derivatives” (Hoffmann-La Roche Inc., priority 2015, dated 2019).

What was measured:
[1] = test system: behavioral signature of compound-treated mice; assay: SmartCube behavioral signature similarity analysis; format: in vivo, mouse
Source text: In addition to the reversal of L-687,414 induced hyperlocomotion experiment as described above, some compounds of the present invention have been tested in SmartCube®, an automated system in which the behaviors of compound-treated mice in response to multiple challenges are captured by digital video and analyzed with computer algorithms (Roberds et al., Frontiers in Neuroscience, 2011, Vol. 5, Art. 103, 1-4; Vadim Alexandrov, Dani Brunner, Taleen Hanania, Emer Leahy Eur. J. Pharmacol. 2015, 750, 82-99). In this way, the neuro-pharmacological effects of a test compound can be predicted by similarity to major classes of compounds, such as antipsychotics, anxiolytics and antidepressants.
SmartCube® was used to compare the behavioral signature of a test compound to a database of behavioral signatures obtained from a large set of clinically approved reference drugs, grouped per indications. In this way, the neuro-pharmacological effects of a test compound can be predicted by similarity to major classes of compounds, such as antipsychotics, anxiolytics and antidepressants. This approach is ideally suited to screen collections of existing drugs or drug candidates with previously unknown neuropharmacology, which could expedite the development of new and unexpected treatments for psychiatric disorders.
Some compounds of the present invention were injected i.p. at different doses 15 minutes before the test. At least 8 mice were used in each treatment group. Digital videos of the subjects were processed with computer vision algorithms to extract over 2000 dependent measures including frequency and duration of many different behavioral states. The results of the classifications are presented as bar charts for each compound and dose (mg/kg), the Y-axis indicates the relative probability that the test compound will show efficacy in the specific CNS indication.
Compounds of the present invention show similar signatures to those of atypical antipsychotics. An independent analysis was performed on the unclassified data to determine the similarity of the example compounds to active doses of known atypical antipsychotics. For this analysis, we use discrimination rate as the measure of separability between the two drugs, i.e. one drug's “distinguishability” from another. A rate equal to 50% (or 0.5) corresponds to zero distinguishability. […] In most cases, the example compounds show a similarity to risperidone, clozapine and olanzapine with a discrimination rate of ≤0.70.

[2] = test system: L-687,414-induced hyperlocomotion; assay: L-687,414-induced hyperlocomotion; format: in vivo, mouse; conditions: mice; 30 mg/kg ip, 15 min before 50 mg/kg s.c. L-687,414
Description: The described compounds of formula I reduce L-687,414-induced hyperlocomotion. This was assessed by using a computerized Digiscan 16 Animal Activity Monitoring System (Omnitech Electronics, Columbus, Ohio) to quantify locomotor activity. Animals were kept under a 12 h light/dark cycle and experiments were performed during the light period. Each activity monitoring chamber consisted of a Plexiglas box (41×41×28 cm; W×L×H) with sawdust bedding on the floor surrounded by invisible horizontal and vertical infrared sensor beams. The test boxes were divided by a Plexiglas cross providing each mouse with 20×20 cm of moving space. Cages were connected to a Digiscan Analyzer linked to a computer that constantly collected the beam status information. Records of photocell beam interruptions for individual animals were taken every 5 min over the duration of the experimental session and the sum of the first 6 periods was used as the final parameter. At least 8 mice were used in each treatment group. Compounds were administered i.p. 15 min before a s.c. injection of 50 mg/kg of L-687,414. Mice were then transferred from their home cage to the recording chambers for a 15-min habituation phase allowing free exploration of the new environment. Horizontal activity was then recorded for a 30-min time period. The % inhibition of L-687,414-induced hyperlocomotion was calculated according to the equation: ((Veh+L-687,414horizontal activity−drug+L-687,414horizontal activity)/Veh+L-687,414horizontal activity)×100
ID50 values, defined as doses of each compound producing 50% inhibition of L-687,414-induced hyperlocomotion, were calculated by linear regression analysis of a dose-response data using an Excel-based computer-fitting program.
As data was not presupposed to be normally distributed, groups treated with test compounds were statistically compared with the control (vehicle-treated) group using one-tailed Mann Whitney U tests. […]

[3] = molecular target: mouse ENT-1 transporter (Mus musculus (Mouse), UniProt Q9JIM1); assay: Determination of adenosine transport activity (ENT1, [3H]-adenosine uptake); format: cell-based; conditions: stable cells expressing mouse ENT-1; [2,8-3H]-adenosine 6 nM, 20 min
Chain of mouse ENT-1 transporter (Q9JIM1 whole entry): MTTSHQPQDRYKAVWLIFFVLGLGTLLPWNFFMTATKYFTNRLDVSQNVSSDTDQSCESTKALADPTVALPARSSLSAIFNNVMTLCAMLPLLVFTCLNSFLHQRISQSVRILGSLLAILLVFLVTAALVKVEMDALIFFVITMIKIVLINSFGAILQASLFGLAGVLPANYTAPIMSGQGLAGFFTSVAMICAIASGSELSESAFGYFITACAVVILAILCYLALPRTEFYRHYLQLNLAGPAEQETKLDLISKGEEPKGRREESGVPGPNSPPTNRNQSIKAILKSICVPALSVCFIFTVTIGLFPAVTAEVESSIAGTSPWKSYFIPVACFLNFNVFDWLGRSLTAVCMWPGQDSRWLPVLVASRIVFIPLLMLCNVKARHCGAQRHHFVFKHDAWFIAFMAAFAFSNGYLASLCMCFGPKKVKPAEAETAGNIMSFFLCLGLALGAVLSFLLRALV
Description: To measure adenosine transport activity of ENT-1 mammalian cells, stable cells expressing the mouse ENT-1 transporter were plated on day 1 in 96-well culture plates at the density of 60,000 cells/well, in complete DMEM/F12 medium supplemented with glutamax, 10% FBS and 10 μg/ml puromycin. On day 2, the medium was aspirated and the cells were washed twice with uptake buffer (10 mM Hepes-Tris, pH 7.4 containing 150 mM NaCl, 1 mM
CaCl2, 2.5 mM KCl, 2.5 mM MgSO4, 10 mM D-glucose) (UB). For inhibition experiments, cells were then incubated at RT with various concentrations of compounds with 1% DMSO final. Non-specific uptake was defined in the presence of 10 μM S-(4-Nitrobenzyl)-6-thioinosine (NBTI, Sigma Cat #N2255).
A solution containing [2,8-^3H]-adenosine 6 nM (40 Ci/mmol, American Radiolabeled chemicals Inc, Cat #ART 0287A) was then immediately added to the wells. The plates were then incubated for 20 min with gentle shaking and the reaction was stopped by aspiration of the mixture and washing (three times) with ice-cold UB. The cells were lysed by the addition of scintillation liquid, shaken 3 hours and the radioactivity in the cells was estimated using a microplates scintillation counter (TopCount NXT, Packard).

[4] = test compound 5 mg/kg i.p., rate <=0.70 = similar

Cc1ncc(-c2ccc3c(c2)N(c2ccc(S(C)(=O)=O)cn2)C(=O)C3(C)C)cn1 [Example 19, 3,3-Dimethyl-6-(2-methylpyrimidin-5-yl)-1-(5-(methylsulfonyl)pyridin-2-yl)indolin-2-one]
SmartCube similarity to major classes of compounds ([1]; i.p., in words): similarity to atypical antipsychotics | discrimination rate vs Clozapine (1.0 mg/kg) [1, 4]: 0.54 | discrimination rate vs Olanzapine (0.25 mg/kg) [1, 4]: 0.52 | discrimination rate vs Risperidone (0.06 mg/kg) [1, 4]: 0.50 | Inhibition, ip of L-687,414-induced hyperlocomotion [2]: 93.5% | IC50 [3]: 157 nM
